Measured values published in patent publication US8017780B1, “Therapeutic compounds and uses thereof” (Myrexis, Inc., priority 2008, dated 2011).

Target: T1, purified human Hsp90
T1 construct: purified human Hsp90 (Stressgen, SPP-770)
Test: Hsp90 binding assay: displacement of BODIPY-labeled geldanamycin by fluorescence polarization
Settings: BODIPY-GM 10 nM, purified human Hsp90 30 nM, overnight at room temperature; read-out: GM Displacement From Purified Hsp90 measured by FP
Procedure: The binding of exemplary compounds to purified Hsp90 can be assayed by measuring the displacement of BODIPY-labeled geldanamycin (BODIPY-GM) from purified human Hsp90, using a fluorescence polarization assay adapted from Kim et al. (Journal of Biomolecular Screening […]. Compound dilutions (in 100% DMSO) are added to black-bottom 96-well plates (Greiner; 2% DMSO final), and equal volumes of BODIPY-GM (10 nM final) and purified human Hsp90 (Stressgen, SPP-770; 30 nM final) in assay buffer (20 mM HEPES-KOH pH 7.3, 50 mM KCl, 5 mM MgCl2, 20 mM Na2MoO4, 0.01% NP-40, 0.1 mg/mL bovine gamma globulin [Invitrogen, P2045], 2 mM DTT) are added sequentially to yield a final volume of 50 microliters. Plates are incubated overnight at room temperature. Parallel and perpendicular fluorescence measurements are read (LJL BioSystems Analyst AD plate reader) at excitation/emission wavelengths of 485/530 nm. Background fluorescence (buffer only) is subtracted, and fluorescence polarization (FP) values, expressed in mP units, are calculated from parallel and perpendicular fluorescence readings as follows: FP=(parallel−perpendicular)/(parallel+perpendicular)*1000.
Percent inhibition is calculated by normalizing the FP values to those obtained in parallel reactions containing DMSO and subtracting these normalized values from 100%. Intrinsic compound fluorescence is independently monitored, and FP data points confounded by compound fluorescence are excluded from the analysis.

| SMILES | IC50 |
| --- | --- |
| C[C@H](O)C(=O)N1CCC(CCn2c(Sc3cc4c(cc3Br)OCO4)nc3c(N)nccc32)CC1 [Example 5, (2S)-1-[4-(2-{4-Amino-2-[(6-bromo-1,3-benzodioxol-5-yl)sulfanyl]-1H-imidazo[4,5-c]pyridin-1-yl}ethyl)piperidin-1-yl]-2-hydroxypropan-1-one] | 1 µM |
| CC(=O)O[C@@H](C)C(=O)N1CCC(CCn2c(Sc3cc4c(cc3N(C)C)OCO4)nc3c(N)nccc32)CC1 [Example 9, (2S)-1-[4-(2-{4-Amino-2-[(6-(dimethylamino)-1,3-benzodioxol-5-yl)sulfanyl]-1H-imidazo[4,5-c]pyridin-1-yl}ethyl)piperidin-1-yl]-1-oxopropan-2-yl acetate] | 0.079 µM |
| CN(C)c1cc2c(cc1Sc1nc3c(N)nccc3n1CCC1CCN(C=O)CC1)OCO2 [Example 8] | 0.11 µM |
| CC(=O)N1CCC(CCn2c(Sc3cc4c(cc3Br)OCO4)nc3c(N)nccc32)CC1 [Example 2, 1-[4-(2-{4-Amino-2-[(6-bromo-1,3-benzodioxol-5-yl)sulfanyl]-1H-imidazo[4,5-c]pyridin-1-yl}ethyl)piperidin-1-yl]ethanone] | 5 µM |
| C[C@H](O)C(=O)N1CCC(CCn2c(Sc3cc4c(cc3N(C)C)OCO4)nc3c(N)nccc32)CC1 [Example 10, (2S)-1-[4-(2-{4-Amino-2-[(6-(dimethylamino)-1,3-benzodioxol-5-yl)sulfanyl]-1H-imidazo[4,5-c]pyridin-1-yl}ethyl)piperidin-1-yl]-2-hydroxypropan-1-one] | 0.11 µM |
| Nc1nccc2c1nc(Sc1cc3c(cc1Br)OCO3)n2CCc1ccccc1Cl [Example 3, 2-[(6-Bromo-1,3-benzodioxol-5-yl)sulfanyl]-1-[2-(2-chlorophenyl)ethyl]-1H-imidazo[4,5-c]pyridin-4-amine] | 2.4 µM |
| Nc1nccc2c1nc(Sc1cc3c(cc1Br)OCO3)n2CCC1CCN(C=O)CC1 [Example 1, 4-(2-[4-Amino-2-[(6-bromo-1,3-benzodioxol-5-yl)sulfanyl]-1H-imidazo[4,5-c]pyridin-1-yl]ethyl)piperidine-1-carbaldehyde] | 5 µM |
